Experimental data reported in patent publication US20260234157A1, “COMPOUND AND METHOD FOR TARGETED DEGRADATION OF ANDROGEN RECEPTOR” (Gan & Lee Pharmaceuticals Co., Ltd., priority 2023, published 2026).
Substitutions are numbered along the chain they refer to.

Tests used:
Type in all cases: cell-based
AR protein [1] = target: T1, AR protein (Homo sapiens, UniProt P10275, T878A); test: Degradation of AR protein in LNCaP cells (Western blot); conditions: LNCaP cells, 8 hours, Western blot grayscale, GAPDH internal reference; for inhibition at 0.01 µM: compound 10 nM, read-out: Degradation rates of the AR protein in LNCaP cells, 10 nM (%); for inhibition at 0.1 µM: compound 100 nM, read-out: Degradation rates of the AR protein in LNCaP cells, 100 nM (%)
T1 construct: degradation activity of the compounds disclosed in the present disclosure on AR protein in LNCaP cells; host or cells: LNCaP FGC
T1 sequence (P10275 1-920 T878A): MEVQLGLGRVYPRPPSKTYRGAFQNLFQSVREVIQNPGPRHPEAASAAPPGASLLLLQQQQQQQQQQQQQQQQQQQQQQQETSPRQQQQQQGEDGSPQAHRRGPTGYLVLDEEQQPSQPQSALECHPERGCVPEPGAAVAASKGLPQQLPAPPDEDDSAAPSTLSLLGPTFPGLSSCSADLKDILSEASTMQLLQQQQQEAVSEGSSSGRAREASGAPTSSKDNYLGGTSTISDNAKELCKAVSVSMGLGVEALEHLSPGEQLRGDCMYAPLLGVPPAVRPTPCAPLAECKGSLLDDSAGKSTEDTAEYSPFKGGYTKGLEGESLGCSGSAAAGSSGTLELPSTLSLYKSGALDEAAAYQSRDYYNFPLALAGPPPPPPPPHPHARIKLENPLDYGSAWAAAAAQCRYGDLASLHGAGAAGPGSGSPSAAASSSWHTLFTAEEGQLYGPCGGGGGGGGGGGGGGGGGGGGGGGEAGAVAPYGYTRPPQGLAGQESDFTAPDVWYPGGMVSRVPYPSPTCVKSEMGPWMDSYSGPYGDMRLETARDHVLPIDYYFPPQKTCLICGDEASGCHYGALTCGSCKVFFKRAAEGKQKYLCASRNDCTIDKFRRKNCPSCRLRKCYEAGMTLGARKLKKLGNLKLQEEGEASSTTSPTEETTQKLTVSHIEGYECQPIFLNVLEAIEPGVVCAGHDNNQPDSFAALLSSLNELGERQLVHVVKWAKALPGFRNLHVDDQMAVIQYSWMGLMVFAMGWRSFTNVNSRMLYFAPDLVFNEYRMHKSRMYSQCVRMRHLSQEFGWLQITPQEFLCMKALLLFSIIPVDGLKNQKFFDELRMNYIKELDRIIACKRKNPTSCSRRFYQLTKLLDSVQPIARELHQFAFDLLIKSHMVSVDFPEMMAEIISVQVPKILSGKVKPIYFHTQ
Outline: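 Percent AR degradation was derived from GAPDH-normalised Western blot band intensities (infrared detection) in LNCaP lysates.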

AR protein [2] = target: T2, AR protein (Homo sapiens, UniProt P10275); test: Degradation of AR protein in VCaP cells (Western blot); conditions: 8 hours; for inhibition at 0.01 µM: compound at 10 nM, read-out: Degradation rate of the AR protein in VCaP cells, 10 nM (%); for inhibition at 0.1 µM: compound at 100 nM, read-out: Degradation rate of the AR protein in VCaP cells, 100 nM (%)
T2 construct: degradation activity of the compounds disclosed in the present disclosure on AR protein in VCaP cells; host or cells: VCaP
T2 sequence (P10275 1-920): T1 sequence (P10275 1-920 T878A) with A878T
Outline: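 Western blot readout: AR band grayscale normalised to GAPDH, used to derive degradation rate. Lysates came from VCaP cells exposed to compound for 8 h, with solvent controls run in parallel.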

LNCaP FGC cells = test: Inhibition of proliferation of LNCaP cells (WST-8); conditions: Homo sapiens, LNCaP, 96 h, LNCaP FGC cells, 96 hours, WST-8 absorbance at 450 nm; read-out: IC50 for inhibiting the proliferation of LNCaP cells
Protocol: The cells were cultured in a cell culture incubator with 5% CO2 at 37° C. overnight. […] On the sixth day, 96 well plates were taken out, and 20 μL of WST-8 (Beytime, C0040) reagent was added to each well.

VCaP cells = test: Inhibition of proliferation of VCaP cells (WST-8); conditions: Homo sapiens; VCaP cells, 168 hours, WST-8 absorbance at 450 nm; read-out: IC50 for inhibiting the proliferation of VCaP cells
Outline: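 Proliferation was read by WST-8 on day nine. Cells were VCaP FGC, seeded at 15000 cells per well in 10% FBS DMEM and kept at 37° C with 5% CO2.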

| Structure (SMILES) | inhibition at 0.01 µM (AR protein [1]) [%] | inhibition at 0.1 µM (AR protein [1]) [%] | inhibition at 0.01 µM (AR protein [2]) [%] | inhibition at 0.1 µM (AR protein [2]) [%] | IC50 (LNCaP FGC cells) [nM] | IC50 (VCaP cells) [nM] |
| --- | --- | --- | --- | --- | --- | --- |
| N#Cc1ccc(O[C@H]2CC[C@H](NC(=O)c3ccc(N4CC5(CCc6cc7c(cc6O5)C(=O)N(C5CCC(=O)NC5=O)C7=O)C4)nn3)CC2)cc1Cl (stereo partly drawn) [Compound 6] | 58 | 46 | 13 | 28 | 5170 | 7500 |
| CC1(CN2CCC3(CC2)COc2c3ccc3c2C(=O)N(C2CCC(=O)NC2=O)C3=O)CCN(c2ncc(C(=O)NC3CCC(Oc4ccc(C#N)c(Cl)c4)CC3)cn2)CC1 (stereo not drawn) [Compound 245] | 2 | 45 | 3 | 43 | 1820 | 100 |
| COc1cc(O[C@H]2C(C)(C)[C@H](NC(=O)c3ccc(N4CCC(C)(CN5CCC6(CCc7ccc8c(c7O6)CN(C6CCC(=O)NC6=O)C8=O)CC5)CC4)cc3)C2(C)C)ccc1C#N (stereo partly drawn) [Compound 283] | 53 | 66 | 2 | 45 | 97600 | 13 |
| COc1cc(O[C@H]2CC[C@H](NC(=O)c3ccc(N4CC(CN5CCC6(CC5)COc5c6ccc6c5C(=O)N(C5CCC(=O)NC5=O)C6=O)C4)nn3)CC2)ccc1C#N (stereo partly drawn) [Compound 251] | 45 | 37 | 48 | 73 | 150 | 270 |
| N#Cc1ccc(O[C@H]2CC[C@H](NC(=O)c3ccc(N4CCC(F)(CN5CCC6(CC5)COc5cc7c(cc5C6)C(=O)N(C5CCC(=O)NC5=O)C7=O)CC4)nn3)CC2)cc1Cl (stereo partly drawn) [Compound 67] | 37 | 60 | 43 | 72 | 15 | 190 |
| COc1cc(OC2CCC(NC(=O)c3cnc(N4CCC(C)(CN5CCC6(CC5)COc5c6ccc6c5C(=O)N(C5CCC(=O)NC5=O)C6=O)CC4)nc3)CC2)ccc1C#N (stereo not drawn) [Compound 246] | 17 | 43 | -19 | 61 | 870 | 120 |
| N#Cc1ccc(O[C@H]2CC[C@H](NC(=O)c3ccc(N4CCC(CN5CCC6(CC5)COc5cc7c(cc5C6)C(=O)N(C5CCC(=O)NC5=O)C7=O)CC4)nn3)CC2)cc1Cl (stereo partly drawn) [Compound 72] | 81 | 92 | 75 | 85 | 50 | 100 |
| N#Cc1ccc(O[C@H]2CC[C@H](NC(=O)c3ccc(N4CC[C@@H](CN5CCC6(CC5)COc5cc7c(cc56)C(=O)N(C5CCC(=O)NC5=O)C7=O)C4)nn3)CC2)cc1Cl (stereo partly drawn) [Compound 57] | 45 | 72 | 66 | 80 | 1360 | 38 |
| CC1(C)[C@H](NC(=O)c2ccc(N3CCC(F)(CN4CCC5(CC4)COc4c5ccc5c4CN(C4CCC(=O)NC4=O)C5=O)CC3)nn2)C(C)(C)[C@H]1Oc1ccc(C#N)c(C(F)(F)F)c1 (stereo partly drawn) [Compound 237] | 6 | 39 | -46 | 23 | 51 | 4.5 |
| CCC1(CN2CCC3(CC2)COc2c3ccc3c2CN(C2CCC(=O)NC2=O)C3=O)CCN(c2ccc(C(=O)N[C@H]3CC[C@H](Oc4ccc(C#N)c(Cl)c4)CC3)nn2)CC1 (stereo partly drawn) [Compound 236] | 44 | 60 | 37 | 82 | 22 | 1 |
| COc1cc(O[C@H]2C(C)(C)[C@H](NC(=O)c3ccc(N4CCC(CN5CCC6(CC5)COc5c6ccc6c5C(=O)N(C5CCC(=O)NC5=O)C6=O)CC4)cc3)C2(C)C)ccc1C#N (stereo partly drawn) [Compound 234] | 58 | 81 | 35 | 72 | 270 | 36 |
| N#Cc1ccc(O[C@H]2CC[C@H](NC(=O)c3ccc(N4CC5(CCC(C(=O)N6CCC7(CC6)COc6c7ccc7c6CN(C6CCC(=O)NC6=O)C7=O)CC5)C4)nn3)CC2)cc1Cl (stereo partly drawn) [Compound 255] | 55 | 44 | 63 | 82 | 50200 | 11 |
| N#Cc1ccc(O[C@H]2CC[C@H](NC(=O)c3ccc(N4CCC5(CCC(N6CCC7(CCc8cc9c(cc8O7)C(=O)N(C7CCC(=O)NC7=O)C9=O)CC6)CC5)C4)nn3)CC2)cc1Cl (stereo partly drawn) [Compound 34] | 57 | 70 | 39 | 51 | 1120 | 4200 |
| CCC1(CN2CCC3(CC2)COc2c3ccc3c2C(=O)N(C2CCC(=O)NC2=O)C3=O)CCN(c2ccc(C(=O)N[C@H]3CC[C@H](Oc4ccc(C#N)c(Cl)c4)CC3)nn2)CC1 (stereo partly drawn) [Compound 249] | -5 | 51 | -21 | 56 | 12100 | 220 |
| N#Cc1ccc(O[C@H]2CC[C@H](NC(=O)c3ccc(C#CC4CCC(N5CCC6(CC5)COc5c6ccc6c5CN(C5CCC(=O)NC5=O)C6=O)CC4)nc3)CC2)cc1Cl (stereo partly drawn) [Compound 235] | 39 | 36 | 35 | 76 | 840 | 2 |
| COC1(CN2CC3(CCc4ccc5c(c4O3)C(=O)N(C3CCC(=O)NC3=O)C5)C2)CCN(c2ccc(C(=O)N[C@H]3CC[C@H](Oc4ccc(C#N)c(Cl)c4)CC3)nn2)CC1 (stereo partly drawn) [Compound 138] | -9 | -1 | -28 | 7 | 71500 | > 90000 |
